Measured values as given in US10213449B2, “Compositions and methods for treating medulloblastoma” (The Board of Trustees of the Leland Stanford Junior …, priority 2016, dated 2019).
Entries after “also recorded” stand apart in the source; their conditions may differ.

Key:
[1] = test system: Hh signaling in NIH 3T3 cells exposed to Shh; test: RT-qPCR of Hh target transcripts in Shh-stimulated NIH 3T3 cells; type: cell-based, mouse; conditions: SHH ligand-induced NIH 3T3 cells; as early as 4 h post exposure
Description: (§1) NIH3T3s or SUFU−/− MEFs were plated in 6 well plates at 400,000 cells/well in 10% FBS media constituted of DMEM (Invitrogen11960-069) supplemented with 10% FBS (Hyclone Labs SH30070.02), pen/strep (Life Technologies 15140-122), sodium pyruvate (Invitrogen 11360-070) and glutamax (Invitrogen 35050-061). Cells were then starved in 0.5% FBS for 24 h prior to treatment with 25% ShhN conditioned media in 0.5% FBS+/− drug treatment. GliΔN were treated 48 h post transfection. Unless otherwise stated, all treatments were performed for 6 h. Cell lysis and RNA extraction was performed using Qiashredder homogenizers (Qiagen 79654) and RNEasy mini kits (qiagen 74104) as per manufacturer's instructions. RNA was quantified on a nanodrop spectrophotometer (nanoddrop technologies ND-2000C). Transcript quantification was performed using a TaqMan RNA-to-Ct 1-Step Kit (Life technologies, 4392656) and the Applied Biosystems 7500 RT-PCR system as per the manufacturer's instructions. All primers were commercially available TaqMan® Gene Expression Assay probes purchased from Life Technologies (csnk2a1: Mm00786779_s1, csnk2a2: Mm01243455_m1, csnk2b: Mm00487216_m1, Gli1: Mm00494654_m1, Gli2: Mm.273292, Ccnd1: Mm.273049, Ptch: Mm00436047_m1).

[2] = test system: MB cell lines (MB55, MB21, MB53); test: Cell viability of MB cell lines (CellTiter-Glo); type: cell-based, mouse; conditions: multiple MB cell lines derived from Ptch1+/− and Ptch1+/−; Trp53−/− mice
Description: Ptch+/−MB cell lines MB55 and MB21 were kindly gifted from Dr. Rosalind Segal (Dana Farber Cancer Institute, Harvard Medical School) and Ptch^+/−; p53^−/− MB53 cells were kindly gifted from Charles Rudin (Memorial Sloan-Kettering Cancer Center). All cell lines were validated for high Gli activity. Cell viability was assessed using CellTiter-Glo (G7573, Promega, WI, USA) according to the manufacturers instructions. Cells were plated at 10000 cells/well in 96-well plates, treated with drugs as indicated and data was collected on a TECAN Infinite 200 plate reader.

[3] = test system: Medulloblastoma cell lines (MB53, MB55 and MB21 cells); test: Acquired resistance in medulloblastoma cell lines; type: cell-based, mouse; conditions: CX-4945 10 uM
Description: Medulloblastoma cell lines (MB53, MB55 and MB21 cells) were cultured in Neurobasal (Life Technologies 10888-022)+B27 supplement (Invitrogen 17504044)+DMSO (0.1%), CX-4945 (10 uM) or TBB (50 uM). […] Primer sequences are provided in supplemental table 5.

[4] = test system: Ptch+/−; Trp53−/−; SmoD477G MB intracranial allografts; test: Intracranial allograft survival study; type: in vivo, mouse; conditions: CX-4945 75 mg/kg PO BID vs vehicle control
Description: Ptch+/−; Tpr53−/−; SmoD477G were suspended in sterile PBS to an adjusted final volume of at 80,000 cells/2 uL injection. Mice were anesthetized and fixed to a stereotactic frame and the head was sterilized. A small sagittal incision was made in the mouse's scalp to expose the area surrounding lambda. The skull was sterilized a 0.7 mm drill bit was used to create a midline hole located 2 mm down from lambda. A Hamilton syringe with affixed 26 g needle was lowered to a depth of ˜3 mm then withdraw to 2.75 mm before injecting 2 uL (80,000) cells at 0.5 ul/min. The drill hole was closed with a thin slip of bone wax and the wound was closed. […] Corn oil was used as vehicle for both CX-4945 and DMSO. Weight, morbidity and survival were measured by a blinded collaborator. Kaplan-meyer survival curves were generated using GraphPad Prism and significance was measured by Logrank Mantel-Cox test.

[5] = test system: Hh signaling in Sufu−/− mouse embryonic fibroblasts; test: RT-qPCR of Gli1 in Sufu−/− MEFs (epistasis study); type: cell-based
Excerpt: (§2) Epistasis studies were next performed to determine where in the hedgehog pathway CK2 acts. The effect of TBB was examined: (i) in NIH 3T3s stimulated with SAG, a SMO agonist, (ii) in Sufu−/− mouse embryonic fibroblasts (MEF), and (iii) in NIH 3T3 cells overexpressing GLI2 (FIG. 3d-3f).
Sufu^−/− MEFs (conditional deletion of exons 4-8) were kindly provided by Pao-Tien Chang (UCSF). SAG (S7779), GDC-0449 (Vismodegib, S1082) and CX-4945 (Silmitasertib, S2248) was purchased from SelleckChem.com. TBB was purchased from EMD (218697). Shh-N conditional medium was made using a HEK 293 cell line that stably secretes ShhN as previously described. Myc-GL12-DN (17649, pCS2-MT-GLI2-deltaN) plasmid was purchased from Addgene (Cambridge, Mass., USA). […]
NIH3T3s or SUFU−/− MEFs were plated in 6 well plates at 400,000 cells/well in 10% FBS media constituted of DMEM (Invitrogen11960-069) supplemented with 10% FBS (Hyclone Labs SH30070.02), pen/strep (Life Technologies 15140-122), sodium pyruvate (Invitrogen 11360-070) and glutamax (Invitrogen 35050-061). […] RNA was quantified on a nanodrop spectrophotometer (nanoddrop technologies ND-2000C). Transcript quantification was performed using a TaqMan RNA-to-Ct 1-Step Kit (Life technologies, 4392656) and the Applied Biosystems 7500 RT-PCR system as per the manufacturer's instructions. […]

[6] = test system: Ptch+/−; Tpr53−/−; SmoD477G MB flank allografts; test: Flank allograft study, SMO inhibitor-resistant MB; type: in vivo, mouse; conditions: TBB 30 mg/kg IP BID or GDC-0449 37.5 mg/kg IP BID vs vehicle control
Description: In vivo efficacy studies were performed in accordance with protocols approved by the Institutional Animal Care and Use Committee at Stanford University. SmoWT-MB and Smo[…]-MB cells isolated from either parental SmoWT or Smo[…] mouse Ptch^+/-; p53^-/- MB hind-flank allografts were kindly provided by Charles Rudin (Memorial Sloan-Kettering Cancer Center). Ptch+/-; Tpr53-/-, or, Ptch+/-; Tpr53-/-; Smo[…] MB cells were mixed 1:1 with matrigel and 10^7 cells were injected into both flanks of a Nu/Nu mouse. Once tumors reached 225-275 mm^3, mice were randomized to treatment vs. control groups. Treatment groups received 30 mg/kg IP BID of TBB (reconstituted in DMSO at 50 ug/uL), or 37.5 mg/kg IP BID of GDC-0449 (reconstituted in DMSO at 62.5 ug/uL). Control mice were treated with an equivalent volume of DMSO. Corn oil was used in all groups to a total volume of 180 uL/injection and all doses were given with a 28 g insulin syringe. Tumors were measured and mice were weighed daily. Once tumors reached 1.5 cm^2 or met institutional euthanasia criteria, mice were sacrificed and tumors were harvested. Growth curves were generated using GraphPad Prism and significance was measured by two-way ANOVA.

[7] = test system: Hh signaling in NIH 3T3s stimulated with SAG; test: RT-qPCR of Gli1 in NIH 3T3s stimulated with SAG (epistasis study); type: cell-based, mouse; conditions: NIH 3T3s, SAG treated groups
Description: as §2
as §1, with “All primers were commercially available TaqMan® Gene Expression Assay probes purchased from Life Technologies (csnk2a1: Mm00786779_s1, csnk2a2: Mm01243455_m1, csnk2b: Mm00487216_m1, Gli1: Mm00494654_m1, Gli2: Mm.273292, Ccnd1: Mm.273049, Ptch: Mm00436047_m1).” left out

In the case of `O=C(O)c1ccc2c(c1)nc(Nc1cccc(Cl)c1)c1ccncc12` [CX-4945, 5-(3-Chloroanilino)benzo[c][2,6]naphthyridine-8-carboxylic acid], the “Gli1 mRNA levels” value [1] is reported as “inhibited; also recorded: loss of Gli1 induction”, the cell viability [2] is reported as “decreased; also recorded: dose dependent tumoricidal effects” and the “surviving cells after 2 weeks of culture with drug” value [3] is reported as “only control treated (DMSO) and MB55 TBB treated (50 uM) cells remained”. For the same compound, the “survival (Kaplan-Meier) of mice harboring intracranial allografts” value [4] was “significant increase in survival”.
`CS(=O)(=O)c1ccc(C(=O)Nc2ccc(Cl)c(-c3ccccn3)c2)c(Cl)c1` [GDC-0449, 2-chloro-N-(4-chloro-3-pyridin-2-ylphenyl)-4-methylsulfonylbenzamide] was tested, and the “Gli1 mRNA levels” value [1] was “loss of Gli1 induction”, the “Gli1 mRNA / Gli transcript levels” value [5] was “no significant change” and the “tumor growth of SmoD477G MB flank allografts” value [6] was “resistant”.
In the case of `CNC1CCC(N(Cc2cccc(-c3ccncc3)c2)C(=O)c2sc3ccccc3c2Cl)CC1` (centres unmarked) [SAG], the “Gli1 mRNA levels (effect of SMO agonist)” value [7] is reported as “Increased”.
